Species: Rattus norvegicus
Test: DrugMatrix - Regimen: Daily Repeat
Type: toxicity, organism-based, Sprague-Dawley
Set-up: regimen Daily Repeat, gender Male, age 6-8 weeks
Conditions: in vivo, po, route oral GAVAGE, vehicle .5 % CMC; for ABSOLUTE BASOPHIL / ABSOLUTE EOSINOPHIL / ABSOLUTE LYMPHOCYTE / ABSOLUTE MONOCYTE / ABSOLUTE SEGMENTED NEUTROPHIL / BASOPHIL / EOSINOPHIL / ERYTHROCYTE COUNT / HEMATOCRIT / HEMOGLOBIN / LEUKOCYTE COUNT / LYMPHOCYTE / MEAN CORPUSCULAR HEMOGLOBIN / MEAN CORPUSCULAR HEMOGLOBIN CONCENTRATION / MEAN CORPUSCULAR VOLUME / MONOCYTE / NEUTROPHIL / NUCLEATED RED BLOOD CELLS / PLATELET COUNT: tissue Blood; for ALANINE AMINOTRANSFERASE / ALBUMIN / ALKALINE PHOSPHATASE / ASPARTATE AMINOTRANSFERASE / BLOOD UREA NITROGEN / CARBON DIOXIDE / CHLORIDE / CHOLESTEROL / CREATINE PHOSPHOKINASE / CREATININE / GLUCOSE / LACTATE DEHYDROGENASE / LIPASE / PHOSPHORUS / SODIUM / TOTAL BILIRUBIN / TOTAL PROTEIN / URIC ACID: tissue Plasma
[1] = 54 mg/kg, 72 h, dose level Low, time 3 day
[2] = 54 mg/kg, 120 h, dose level Low, time 5 day
[3] = 1200 mg/kg, 72 h, dose level High, time 3 day
[4] = 1200 mg/kg, 120 h, dose level High, time 5 day

Compound: NC(N)=Nc1nc(CSCCC(N)=NS(N)(=O)=O)cs1 [FAMOTIDINE]
- ABSOLUTE BASOPHIL [1]: 0 CELLS/uL
- ABSOLUTE EOSINOPHIL [1]: 169.67 CELLS/uL
- ABSOLUTE LYMPHOCYTE [1]: 13320 CELLS/uL
- ABSOLUTE MONOCYTE [1]: 113.67 CELLS/uL
- ABSOLUTE SEGMENTED NEUTROPHIL [1]: 2530 CELLS/uL
- BASOPHIL [1]: 0%
- EOSINOPHIL [1]: 1%
- ERYTHROCYTE COUNT [1]: 5.11 x10E6/uL
- HEMATOCRIT [1]: 32.47%
- HEMOGLOBIN [1]: 12.1 G/DL
- LEUKOCYTE COUNT [1]: 16.13 x10E3/uL
- LYMPHOCYTE [1]: 81.67%
- MEAN CORPUSCULAR HEMOGLOBIN [1]: 23.73 pg
- MEAN CORPUSCULAR HEMOGLOBIN CONCENTRATION [1]: 37.27 G/DL
- MEAN CORPUSCULAR VOLUME [1]: 63.57 fL
- MONOCYTE [1]: 0.67%
- NEUTROPHIL [1]: 16.67%
- NUCLEATED RED BLOOD CELLS [1]: 0 /100WBC
- PLATELET COUNT [1]: 1110 x10E3/uL
- ALANINE AMINOTRANSFERASE [1]: 57 u/L
- ALBUMIN [1]: 4.17 G/DL
- ALKALINE PHOSPHATASE [1]: 343.67 u/L
- ASPARTATE AMINOTRANSFERASE [1]: 85 u/L
- BLOOD UREA NITROGEN [1]: 17 mg/dL
- CARBON DIOXIDE [1]: 27.33 mmol/L
- CHLORIDE [1]: 106.67 MEQ/L
- CHOLESTEROL [1]: 74.67 mg/dL
- CREATINE PHOSPHOKINASE [1]: 218 u/L
- CREATININE [1]: 0.19 mg/dL
- GLUCOSE [1]: 162 mg/dL
- LACTATE DEHYDROGENASE [1]: 62.33 u/L
- LIPASE [1]: 9 u/L
- PHOSPHORUS [1]: 14.6 mg/dL
- SODIUM [1]: 148.03 MEQ/L
- TOTAL BILIRUBIN [1]: 0.2 mg/dL
- TOTAL PROTEIN [1]: 5.87 G/DL
- URIC ACID [1]: 1.13 mg/dL
- ABSOLUTE BASOPHIL [2]: 0 CELLS/uL
- ABSOLUTE EOSINOPHIL [2]: 121 CELLS/uL
- ABSOLUTE LYMPHOCYTE [2]: 12766.33 CELLS/uL
- ABSOLUTE MONOCYTE [2]: 233 CELLS/uL
- ABSOLUTE SEGMENTED NEUTROPHIL [2]: 713 CELLS/uL
- BASOPHIL [2]: 0%
- EOSINOPHIL [2]: 1%
- ERYTHROCYTE COUNT [2]: 5.42 x10E6/uL
- HEMATOCRIT [2]: 34.9%
- HEMOGLOBIN [2]: 13.43 G/DL
- LEUKOCYTE COUNT [2]: 13.83 x10E3/uL
- LYMPHOCYTE [2]: 92%
- MEAN CORPUSCULAR HEMOGLOBIN [2]: 24.87 pg
- MEAN CORPUSCULAR HEMOGLOBIN CONCENTRATION [2]: 38.5 G/DL
- MEAN CORPUSCULAR VOLUME [2]: 64.63 fL
- MONOCYTE [2]: 1.67%
- NEUTROPHIL [2]: 5.33%
- NUCLEATED RED BLOOD CELLS [2]: 0 /100WBC
- PLATELET COUNT [2]: 1325.67 x10E3/uL
- ALANINE AMINOTRANSFERASE [2]: 55.33 u/L
- ALBUMIN [2]: 4.33 G/DL
- ALKALINE PHOSPHATASE [2]: 326.67 u/L
- ASPARTATE AMINOTRANSFERASE [2]: 90.67 u/L
- BLOOD UREA NITROGEN [2]: 18 mg/dL
- CARBON DIOXIDE [2]: 24.33 mmol/L
- CHLORIDE [2]: 106.33 MEQ/L
- CHOLESTEROL [2]: 62.67 mg/dL
- CREATINE PHOSPHOKINASE [2]: 662.67 u/L
- CREATININE [2]: 0.19 mg/dL
- GLUCOSE [2]: 182.67 mg/dL
- LACTATE DEHYDROGENASE [2]: 190.67 u/L
- LIPASE [2]: 8 u/L
- PHOSPHORUS [2]: 14.57 mg/dL
- SODIUM [2]: 146.63 MEQ/L
- TOTAL BILIRUBIN [2]: 0.2 mg/dL
- TOTAL PROTEIN [2]: 6.07 G/DL
- URIC ACID [2]: 1.6 mg/dL
- ABSOLUTE BASOPHIL [3]: 0 CELLS/uL
- ABSOLUTE EOSINOPHIL [3]: 179 CELLS/uL
- ABSOLUTE LYMPHOCYTE [3]: 9906 CELLS/uL
- ABSOLUTE MONOCYTE [3]: 48.67 CELLS/uL
- ABSOLUTE SEGMENTED NEUTROPHIL [3]: 1366.33 CELLS/uL
- BASOPHIL [3]: 0%
- EOSINOPHIL [3]: 1.67%
- ERYTHROCYTE COUNT [3]: 5.88 x10E6/uL
- HEMATOCRIT [3]: 36.73%
- HEMOGLOBIN [3]: 13.97 G/DL
- LEUKOCYTE COUNT [3]: 11.5 x10E3/uL
- LYMPHOCYTE [3]: 85.33%
- MEAN CORPUSCULAR HEMOGLOBIN [3]: 23.73 pg
- MEAN CORPUSCULAR HEMOGLOBIN CONCENTRATION [3]: 38.03 G/DL
- MEAN CORPUSCULAR VOLUME [3]: 62.5 fL
- MONOCYTE [3]: 0.67%
- NEUTROPHIL [3]: 12.33%
- NUCLEATED RED BLOOD CELLS [3]: 0 /100WBC
- PLATELET COUNT [3]: 1159.67 x10E3/uL
- ALANINE AMINOTRANSFERASE [3]: 56 u/L
- ALBUMIN [3]: 4.43 G/DL
- ALKALINE PHOSPHATASE [3]: 396.33 u/L
- ASPARTATE AMINOTRANSFERASE [3]: 89 u/L
- BLOOD UREA NITROGEN [3]: 16.33 mg/dL
- CARBON DIOXIDE [3]: 26.33 mmol/L
- CHLORIDE [3]: 106.33 MEQ/L
- CHOLESTEROL [3]: 85.33 mg/dL
- CREATINE PHOSPHOKINASE [3]: 213.67 u/L
- CREATININE [3]: 0.2 mg/dL
- GLUCOSE [3]: 152.33 mg/dL
- LACTATE DEHYDROGENASE [3]: 137.33 u/L
- LIPASE [3]: 8.67 u/L
- PHOSPHORUS [3]: 13.77 mg/dL
- SODIUM [3]: 148.03 MEQ/L
- TOTAL BILIRUBIN [3]: 0.27 mg/dL
- TOTAL PROTEIN [3]: 6.4 G/DL
- URIC ACID [3]: 2.37 mg/dL
- ABSOLUTE BASOPHIL [4]: 0 CELLS/uL
- ABSOLUTE EOSINOPHIL [4]: 254 CELLS/uL
- ABSOLUTE LYMPHOCYTE [4]: 15699.67 CELLS/uL
- ABSOLUTE MONOCYTE [4]: 74 CELLS/uL
- ABSOLUTE SEGMENTED NEUTROPHIL [4]: 1405.67 CELLS/uL
- BASOPHIL [4]: 0%
- EOSINOPHIL [4]: 1.33%
- ERYTHROCYTE COUNT [4]: 5.4 x10E6/uL
- HEMATOCRIT [4]: 34.6%
- HEMOGLOBIN [4]: 13.17 G/DL
- LEUKOCYTE COUNT [4]: 17.43 x10E3/uL
- LYMPHOCYTE [4]: 90%
- MEAN CORPUSCULAR HEMOGLOBIN [4]: 24.43 pg
- MEAN CORPUSCULAR HEMOGLOBIN CONCENTRATION [4]: 38.03 G/DL
- MEAN CORPUSCULAR VOLUME [4]: 64.2 fL
- MONOCYTE [4]: 0.33%
- NEUTROPHIL [4]: 8.33%
- NUCLEATED RED BLOOD CELLS [4]: 0 /100WBC
- PLATELET COUNT [4]: 1387 x10E3/uL
- ALANINE AMINOTRANSFERASE [4]: 59 u/L
- ALBUMIN [4]: 4.4 G/DL
- ALKALINE PHOSPHATASE [4]: 383.67 u/L
- ASPARTATE AMINOTRANSFERASE [4]: 87.67 u/L
- BLOOD UREA NITROGEN [4]: 18 mg/dL
- CARBON DIOXIDE [4]: 25.67 mmol/L
- CHLORIDE [4]: 103.67 MEQ/L
- CHOLESTEROL [4]: 59.33 mg/dL
- CREATINE PHOSPHOKINASE [4]: 259.33 u/L
- CREATININE [4]: 0.27 mg/dL
- GLUCOSE [4]: 182 mg/dL
- LACTATE DEHYDROGENASE [4]: 250.33 u/L
- LIPASE [4]: 8.67 u/L
- PHOSPHORUS [4]: 14.07 mg/dL
- SODIUM [4]: 145.8 MEQ/L
- TOTAL BILIRUBIN [4]: 0.17 mg/dL
- TOTAL PROTEIN [4]: 6.3 G/DL
- URIC ACID [4]: 2.17 mg/dL

Source: ChEMBL document CHEMBL3885881, “DrugMatrix”
